Measured values published in ChEMBL document CHEMBL1147581, “Development of novel lipid-peptide hybrid compounds with antibacterial activity from natural cationic antibacterial peptides” (Bioorg Med Chem Lett, 2004).
Converted amounts (≈) assume the structure as drawn. The source made the active and inactive calls. The calls are words filed in the database; no cut-off is given here. Non-standard residues stand in square brackets, D forms with d. Residues, ends and D or L forms follow the SMILES beside them. *: point of attachment. Palmitoleoyl = CCCCCC/C=C\CCCCCCCC(=O)*; PhAc = O=C(Cc1ccccc1)*; Bz = O=C(c1ccccc1)*; Ahx = NCCCCCC(=O)O

Assays:
Candida albicans [1] = assay: Minimum inhibitory concentration against Candida albicans ATCC 36232; NA = not active; type: functional, organism-based
Escherichia coli [2] = assay: Minimum inhibitory concentration against Escherichia coli ATCC 25922; NA = not active; type: functional, organism-based
[3] = Minimum inhibitory concentration against Micrococcus luteus ATCC 9341; type: functional
Mus musculus [4] = organism: Mus musculus; assay: Concentration required for half-maximal lysis of mouse erythrocytes; type: functional
Pseudomonas aeruginosa [5] = assay: Minimum inhibitory concentration against Pseudomonas aeruginosa ATCC 9027; NA = not active; type: functional, organism-based
Staphylococcus aureus = assay: Minimum inhibitory concentration against Staphylococcus aureus ATCC 6538; type: functional
Candida albicans [6] = assay: Minimum inhibitory concentration against Candida albicans ATCC 36232; type: functional
Escherichia coli [7] = assay: Minimum inhibitory concentration against Escherichia coli ATCC 25922; type: functional
Pseudomonas aeruginosa [8] = assay: Minimum inhibitory concentration against Pseudomonas aeruginosa ATCC 9027; type: functional
Mus musculus [9] = organism: Mus musculus; assay: Concentration required for half-maximal lysis of mouse erythrocytes; NA = not active; type: functional, organism-based
[10] = Stability of the peptide in the presence of mouse serum; type: ADME, organism-based

| Structure (SMILES) | MIC (Candida albicans [1]) | MIC (Escherichia coli [2]) | MIC [3] [µg/mL] | HD50 (Mus musculus [4]) [µg/mL] | MIC (Pseudomonas aeruginosa [5]) | MIC (Staphylococcus aureus) [µg/mL] | MIC (Candida albicans [6]) [µg/mL] | MIC (Escherichia coli [7]) [µg/mL] | MIC (Pseudomonas aeruginosa [8]) [µg/mL] | HD50 (Mus musculus [9]) | half-life [10] [min] |
| --- | --- | --- | --- | --- | --- | --- | --- | --- | --- | --- | --- |
| CC(C)[C@H](NC(=O)[C@H](CS)NC(=O)[C@@H](NC(=O)[C@H](CCCN=C(N)N)NC(=O)[C@H](CCCCN)NC(=O)CNC(=O)[C@H](CC(N)=O)NC(=O)[C@H](CS)NC(=O)[C@H](Cc1ccc(O)cc1)NC(=O)Cc1ccccc1)C(C)C)C(=O)N[C@@H](CS)C(=O)N[C@@H](CCCN=C(N)N)C(N)=O (PhAc-YCNGKRVCVCR-NH2) | inactive | inactive | > 100 | >100 | inactive | 100 (≈ 70.5 µM) |  |  |  |  |  |
| CC(C)[C@H](NC(=O)[C@H](CS)NC(=O)[C@@H](NC(=O)[C@H](CCCN=C(N)N)NC(=O)[C@H](CCCCN)NC(=O)CNC(=O)[C@H](CC(N)=O)NC(=O)[C@H](CS)NC(=O)[C@H](Cc1ccc(O)cc1)NC(=O)[C@@H](N)Cc1ccccc1)C(C)C)C(=O)N[C@@H](CS)C(=O)N[C@@H](CCCN=C(N)N)C(N)=O (H-FYCNGKRVCVCR-NH2) |  |  | 12.5 (≈ 8.64 µM) | >100 |  | 25 (≈ 17.3 µM) | 25 (≈ 17.3 µM) | 25 (≈ 17.3 µM) | 25 (≈ 17.3 µM) |  |  |
| CC[C@H](C)[C@H](NC(=O)CN)C(=O)NCC(=O)N[C@@H](CCCCN)C(=O)N[C@@H](Cc1ccccc1)C(=O)N[C@@H](CC(C)C)C(=O)N[C@@H](Cc1c[nH]cn1)C(=O)N[C@@H](CO)C(=O)N[C@@H](C)C(=O)N[C@@H](CCCCN)C(=O)N[C@@H](CCCCN)C(=O)N[C@@H](Cc1ccccc1)C(=O)NCC(=O)N[C@@H](CCCCN)C(=O)N[C@@H](C)C(=O)N[C@@H](Cc1ccccc1)C(=O)N[C@H](C(=O)NCC(=O)N[C@@H](CCC(=O)O)C(=O)N[C@H](C(=O)N[C@@H](CCSC)C(=O)N[C@@H](CC(N)=O)C(=O)N[C@@H](CO)C(=O)O)[C@@H](C)CC)C(C)C [MAGAININ 2] (H-GIGKFLHSAKKFGKAFVGEIMNS-OH) |  |  | 50 (≈ 20.3 µM) |  |  | 40 (≈ 16.2 µM) | 50 (≈ 20.3 µM) | 20 (≈ 8.11 µM) | 20 (≈ 8.11 µM) | inactive |  |
| CC[C@H](C)[C@H](NC(=O)[C@H](Cc1ccc(O)cc1)NC(=O)[C@H](CCCCN)NC(=O)[C@H](CCCCN)NC(=O)c1ccccc1)C(=O)N[C@@H](CCCCN)C(=O)N[C@H](C(=O)N[C@@H](Cc1ccccc1)C(=O)N[C@H](C(=O)N[C@@H](Cc1ccccc1)C(=O)N[C@@H](CCCCN)C(N)=O)C(C)C)C(C)C (Bz-KKYIKVFVFK-NH2) [listing 1 of 2 here] |  |  |  |  |  |  |  |  |  |  | 30 |
| CC(C)[C@H](NC(=O)[C@H](CS)NC(=O)[C@@H](NC(=O)[C@H](CCCN=C(N)N)NC(=O)[C@H](CCCCN)NC(=O)CNC(=O)[C@H](CC(N)=O)NC(=O)[C@H](CS)NC(=O)[C@H](Cc1ccc(O)cc1)NC(=O)[C@@H](N)CCCCN)C(C)C)C(=O)N[C@@H](CS)C(=O)N[C@@H](CCCN=C(N)N)C(N)=O (H-KYCNGKRVCVCR-NH2) |  |  | 6.3 (≈ 4.41 µM) | >100 |  | 12.5 (≈ 8.75 µM) | 25 (≈ 17.5 µM) | 50 (≈ 35 µM) | 50 (≈ 35 µM) |  |  |
| CC(C)[C@H](NC(=O)[C@H](CS)NC(=O)[C@@H](NC(=O)[C@H](CCCN=C(N)N)NC(=O)[C@H](CCCCN)NC(=O)CNC(=O)[C@H](CC(N)=O)NC(=O)[C@H](CS)NC(=O)[C@@H](N)Cc1ccc(O)cc1)C(C)C)C(=O)N[C@@H](CS)C(=O)N[C@@H](CCCN=C(N)N)C(N)=O (H-YCNGKRVCVCR-NH2) |  |  | 25 (≈ 19.2 µM) | >100 |  | 25 (≈ 19.2 µM) | 25 (≈ 19.2 µM) | 12.5 (≈ 9.62 µM) | 50 (≈ 38.5 µM) |  |  |
| CC[C@H](C)[C@H](NC(=O)[C@H](Cc1ccc(O)cc1)NC(=O)[C@H](CCCCN)NC(=O)[C@H](CCCCN)NC(C)=O)C(=O)N[C@@H](CCCCN)C(=O)N[C@H](C(=O)N[C@@H](Cc1ccccc1)C(=O)N[C@H](C(=O)N[C@@H](Cc1ccccc1)C(=O)N[C@@H](CCCCN)C(N)=O)C(C)C)C(C)C (Ac-KKYIKVFVFK-NH2) |  |  |  |  |  | 100 (≈ 74.6 µM) |  |  |  |  | 30 |
| CC(C)[C@H](NC(=O)[C@H](CS)NC(=O)[C@@H](NC(=O)[C@H](CCCN=C(N)N)NC(=O)[C@H](CCCCN)NC(=O)CNC(=O)[C@H](CC(N)=O)NC(=O)[C@H](CS)NC(=O)[C@H](Cc1ccc(O)cc1)NC(=O)CCCCCN)C(C)C)C(=O)N[C@@H](CS)C(=O)N[C@@H](CCCN=C(N)N)C(N)=O (H-[Ahx]YCNGKRVCVCR-NH2) | inactive | inactive | 50 (≈ 35.4 µM) | >100 | inactive | 50 (≈ 35.4 µM) |  |  |  |  |  |
| CC(C)[C@H](NC(=O)[C@H](CS)NC(=O)[C@@H](NC(=O)[C@H](CCCN=C(N)N)NC(=O)[C@H](CCCCN)NC(=O)CNC(=O)[C@H](CC(N)=O)NC(=O)[C@H](CS)NC(=O)[C@H](Cc1ccc(O)cc1)NC(=O)[C@H](Cc1ccccc1)NC(=O)[C@@H](N)CCCCN)C(C)C)C(=O)N[C@@H](CS)C(=O)N[C@@H](CCCN=C(N)N)C(N)=O (H-KFYCNGKRVCVCR-NH2) |  |  | 6.3 (≈ 4 µM) | >100 |  | 6.3 (≈ 4 µM) | 12.5 (≈ 7.94 µM) | 25 (≈ 15.9 µM) | 50 (≈ 31.7 µM) |  |  |
| CC(=O)NCCCCCC(=O)N[C@@H](Cc1ccc(O)cc1)C(=O)N[C@@H](CS)C(=O)N[C@@H](CC(N)=O)C(=O)NCC(=O)N[C@@H](CCCCN)C(=O)N[C@@H](CCCN=C(N)N)C(=O)N[C@H](C(=O)N[C@@H](CS)C(=O)N[C@H](C(=O)N[C@@H](CS)C(=O)N[C@@H](CCCN=C(N)N)C(N)=O)C(C)C)C(C)C (Ac-[Ahx]YCNGKRVCVCR-NH2) | inactive | inactive | > 100 | >100 | inactive | > 100 |  |  |  |  |  |
| CC(C)[C@H](NC(=O)[C@H](CS)NC(=O)[C@@H](NC(=O)[C@H](CCCN=C(N)N)NC(=O)[C@H](CCCCN)NC(=O)CNC(=O)[C@H](CC(N)=O)NC(=O)[C@H](CS)NC(=O)[C@H](Cc1ccc(O)cc1)NC(=O)[C@H](CCCCN)NC(=O)[C@@H](N)CCCCN)C(C)C)C(=O)N[C@@H](CS)C(=O)N[C@@H](CCCN=C(N)N)C(N)=O (H-KKYCNGKRVCVCR-NH2) |  |  | 6.3 (≈ 4.05 µM) | >100 |  | 6.3 (≈ 4.05 µM) | 12.5 (≈ 8.03 µM) | 25 (≈ 16.1 µM) | 25 (≈ 16.1 µM) |  |  |
| CC[C@H](C)[C@H](NC(=O)CN)C(=O)NCC(=O)N[C@@H](C)C(=O)N[C@H](C(=O)N[C@@H](CC(C)C)C(=O)N[C@@H](CCCCN)C(=O)N[C@H](C(=O)N[C@@H](CC(C)C)C(=O)N[C@H](C(=O)N[C@H](C(=O)NCC(=O)N[C@@H](CC(C)C)C(=O)N1CCC[C@H]1C(=O)N[C@@H](C)C(=O)N[C@@H](CC(C)C)C(=O)N[C@H](C(=O)N[C@@H](CO)C(=O)N[C@@H](Cc1c[nH]c2ccccc12)C(=O)N[C@H](C(=O)N[C@@H](CCCCN)C(=O)N[C@@H](CCCNC(=N)N)C(=O)N[C@@H](CCCCN)C(=O)N[C@@H](CCCNC(=N)N)C(=O)N[C@@H](CCC(N)=O)C(=O)N[C@@H](CCC(N)=O)C(N)=O)[C@@H](C)CC)[C@@H](C)CC)[C@@H](C)O)[C@@H](C)O)C(C)C)C(C)C [MELITTIN] |  |  | 0.78 (≈ 0.274 µM) |  |  |  | 1.56 (≈ 0.548 µM) |  |  | inactive |  |
| CC[C@H](C)[C@H](NC(=O)[C@H](Cc1ccc(O)cc1)NC(=O)[C@H](CCCCN)NC(=O)[C@@H](N)CCCCN)C(=O)N[C@@H](CCCCN)C(=O)N[C@H](C(=O)N[C@@H](Cc1ccccc1)C(=O)N[C@H](C(=O)N[C@@H](Cc1ccccc1)C(=O)N[C@@H](CCCCN)C(N)=O)C(C)C)C(C)C (H-KKYIKVFVFK-NH2) |  |  |  |  |  | 6.3 (≈ 4.85 µM) |  |  |  |  | 8 |
| CC[C@H](C)[C@H](NC(=O)[C@H](Cc1ccc(O)cc1)NC(=O)[C@H](CCCCN)NC(=O)[C@H](CCCCN)NC(=O)c1ccccc1)C(=O)N[C@@H](CCCCN)C(=O)N[C@H](C(=O)N[C@@H](Cc1ccccc1)C(=O)N[C@H](C(=O)N[C@@H](Cc1ccccc1)C(=O)N[C@@H](CCCCN)C(N)=O)C(C)C)C(C)C (Bz-KKYIKVFVFK-NH2) [listing 2 of 2 here] |  |  |  |  |  | 50 (≈ 35.6 µM) |  |  |  |  |  |
| CCCCCC/C=C\CCCCCCCC(=O)N[C@@H](Cc1ccc(O)cc1)C(=O)N[C@@H](CS)C(=O)N[C@@H](CC(N)=O)C(=O)NCC(=O)N[C@@H](CCCCN)C(=O)N[C@@H](CCCN=C(N)N)C(=O)N[C@H](C(=O)N[C@@H](CS)C(=O)N[C@H](C(=O)N[C@@H](CS)C(=O)N[C@@H](CCCN=C(N)N)C(N)=O)C(C)C)C(C)C (Palmitoleoyl-YCNGKRVCVCR-NH2) | inactive | inactive | > 100 | >100 | inactive | > 100 |  |  |  |  |  |
| CC[C@H](C)[C@H](NC(=O)[C@H](Cc1ccc(O)cc1)NC(=O)[C@H](CCCCN)NC(=O)[C@H](CCCCN)NC(=O)CCCCCNC(C)=O)C(=O)N[C@@H](CCCCN)C(=O)N[C@H](C(=O)N[C@@H](Cc1ccccc1)C(=O)N[C@H](C(=O)N[C@@H](Cc1ccccc1)C(=O)N[C@@H](CCCCN)C(N)=O)C(C)C)C(C)C (Ac-[Ahx]KKYIKVFVFK-NH2) |  |  |  |  |  | 6.3 (≈ 4.33 µM) |  |  |  |  | 45 |
| CC(=O)N[C@@H](Cc1ccc(O)cc1)C(=O)N[C@@H](CS)C(=O)N[C@@H](CC(N)=O)C(=O)NCC(=O)N[C@@H](CCCCN)C(=O)N[C@@H](CCCN=C(N)N)C(=O)N[C@H](C(=O)N[C@@H](CS)C(=O)N[C@H](C(=O)N[C@@H](CS)C(=O)N[C@@H](CCCN=C(N)N)C(N)=O)C(C)C)C(C)C (Ac-YCNGKRVCVCR-NH2) | inactive | inactive | 100 (≈ 74.5 µM) | >100 | inactive | 50 (≈ 37.3 µM) |  |  |  |  |  |
